Assay results as given in patent US6730666B1, “Pharmaceutical compositions comprising porphyrins and some novel porphyrin derivatives” (Yeda Research and Development Co. Ltd., priority 1998, dated 2004).
Blank lines part the entries; values can stand above or below the compound they belong to.

Experiments:
FGFR-3 = target: T1, FGFR-3 (Homo sapiens, UniProt P22607); experiment: Binding of 125I-FGF9 to CHO cells transfected with FGFR-3; settings: FIG. 12
T1 construct: expressed in transfected cells; host or cells: CHO cells (mutant 745)
T1 sequence (P22607 23-806, species assumed): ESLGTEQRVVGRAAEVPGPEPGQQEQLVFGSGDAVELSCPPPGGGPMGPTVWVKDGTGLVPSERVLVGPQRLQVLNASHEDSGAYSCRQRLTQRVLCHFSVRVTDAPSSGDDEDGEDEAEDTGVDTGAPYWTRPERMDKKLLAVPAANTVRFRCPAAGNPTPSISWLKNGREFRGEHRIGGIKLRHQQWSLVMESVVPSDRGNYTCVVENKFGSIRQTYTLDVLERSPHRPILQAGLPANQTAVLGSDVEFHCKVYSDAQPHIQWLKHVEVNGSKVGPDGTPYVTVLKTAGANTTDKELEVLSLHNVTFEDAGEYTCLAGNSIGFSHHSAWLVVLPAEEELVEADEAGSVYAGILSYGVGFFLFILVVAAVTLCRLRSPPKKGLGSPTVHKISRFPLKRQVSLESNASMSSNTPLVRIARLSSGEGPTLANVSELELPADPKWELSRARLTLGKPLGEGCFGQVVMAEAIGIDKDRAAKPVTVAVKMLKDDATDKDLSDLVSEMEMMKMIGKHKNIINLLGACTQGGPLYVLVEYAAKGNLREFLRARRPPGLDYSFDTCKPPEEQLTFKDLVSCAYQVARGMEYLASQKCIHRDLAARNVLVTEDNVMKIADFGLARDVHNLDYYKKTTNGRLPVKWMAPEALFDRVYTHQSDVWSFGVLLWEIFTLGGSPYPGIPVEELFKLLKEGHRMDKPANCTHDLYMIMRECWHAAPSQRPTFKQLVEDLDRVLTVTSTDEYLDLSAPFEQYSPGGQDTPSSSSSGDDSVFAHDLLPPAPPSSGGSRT
Description: CHO mutant cells-745 expressing FGFR-3 were incubated for 90 min at 4° C. in the presence of increasing concentrations of the porphyrins, with 1 μg/ml of heparin and ^125I-FGF9 (2 ng/ml). The binding medium was discarded and the cells were washed with ice cold DMEM/BSA. To determine receptor binding of ^125I-FGF9, the cells were incubated in cold PBS (pH 4) containing 1.6M NaCl and 25 mM HEPES, and the cell extract was counted in a γ-counter.
(§1) (iv) Binding of ^125I-bFGF and ^125I-FGF9 to cells. Confluent cultures of CHO cells expressing FGFR-1(Yayon et al, 1991) or FGFR-3 (Hecht et al, 1995) in 24-well plates (Falcon) were precooled and washed twice with cold DMEM supplemented with 20 mM Hepes (pH 7.5) and 0.1% bovine serum albumin (DMEM/BSA). They were then incubated for 1.5 h at 4° C. with ^125I-bFGF (2 ng/ml) and increasing concentrations of porphyrin/corrole compound. The binding medium was discarded and the cells were washed once with ice-cold DMEM/BSA and twice with cold PBS (pH 7.5) containing 1.6M NaCl. […] Non-specific binding was determined in the presence of a 100-fold excess of unlabeled bFGF.

PLC-γ = PLC-γ phosphorylation in FGFR-3 expressing cells induced by FGF-9; type: cell-based; settings: FIG. 15A
Description: (§2) (viii) Immunoblots. To the overnight serum-starved cells (2 plates for each treatment), 500 μl of F12^++ medium were added which either contained or not the respective porphyrin or corrole compound in a final concentration of […] for 40 min at 37° C. One of the two plates of each treatment was then stimulated with FGF9 (+) (75 ng/ml) and to the second plate only medium (−) was added for 10 min at 37° C. The cells were washed twice with PBS. 600 μl of SBN lysis buffer containing 1% NP-40 and 1 mM vanadate were added and left on ice for 10 min. The plates were then scraped and left on ice for additional 10 min. The lysate was span down in Eppendorf centrifuge for 15 min, 15000 rpm at 4° C. The supernatants were kept and Bradford protein determinant on assay was performed in the samples. 500 μg protein from each sample were taken for immunoprecipitation with 7.5 μl antibody against FGFR-3, 4 hr at 4° C.
(§3) These findings support the notion that the porphyrins can serve for treating FGFR-3 related growth disorders. ERK1 and ERK2 are two isoforms of ERK.

ERK = ERK phosphorylation in FGFR-3 expressing cells induced by FGF-9; type: cell-based; settings: FIG. 15B
Description: as §2, §3

smooth muscle cells = experiment: Smooth muscle cell proliferation induced by bFGF; type: cell-based; settings: 2 μg/ml or 20 μg/ml of P1; bFGF 10 ng/ml; FIG. 16
Description: In order to determine the ability of P1 to inhibit the biological activity of bFGF on cell proliferation, smooth muscle cells were grown in 24-well plates in the presence of bFGF (10 ng/ml) and in the presence of 2 μg/ml or 20 μg/ml of P1. Cell number was determined daily by counting cell samples under a microscope.

[1] = test system: NIH 3T3 cells expressing signal peptide bFGF; experiment: Tumor formation induced by signal peptide bFGF expressing NIH 3T3 cells in nude mice; type: in vivo, Balb/C nude mice; settings: free P1, 25 μg/g of body mass IP twice a week, after 4 weeks
Description: (v) Inhibition by porphyrins of tumor formation induced by signal peptide bFGF expressing cells NIH 3T3 cells expressing signal peptide bFGF were injected subcutaneously to Balb/C nude mice as described (Yayon and Klagsbrun, 1990). Porphyrin/corrole compound at 25 μg/g of body mass was injected IP (intraperitoneally) twice a week and after 4 weeks the tumor size was measured.
After establishing the ability of P1 to inhibit FGF biological activity in vitro, the capacity of P1 to inhibit bFGF-induced tumor growth and metastasis was evaluated in vivo. First, the inhibition of tumor growth induced by signal peptide bFGF in a nude mice model was measured (Methods, section (v)). Upon addition of a signal peptide residue to bFGF, the protein is capable of transforming NIH 3T3 cells which, when injected to nude mice, grow and form a tumor Rayon & Klagsbrun, 1990). NIH 3T3 cells expressing signal peptide bFGF were injected subcutaneously to Balb/C nude mice, and P1 either free or liposome incorporated (as described by Jori and Reddi, 1993) (25 μg/g of body mass) were given twice a week by intraperitoneal injection.

[2] = target: T2, flt-1 VEGF receptor AP fusion protein (Homo sapiens, UniProt P17948); experiment: Binding of soluble VEGF receptor flt-1-AP fusion protein to immobilized VEGF; settings: FIG. 10B; read-out: IC50, inhibition of flt-1-AP binding to immobilized VEGF
T2 construct: soluble VEGF receptor flt-1-AP fusion protein; made in house
T2 sequence (P17948 27-758 limits assumed): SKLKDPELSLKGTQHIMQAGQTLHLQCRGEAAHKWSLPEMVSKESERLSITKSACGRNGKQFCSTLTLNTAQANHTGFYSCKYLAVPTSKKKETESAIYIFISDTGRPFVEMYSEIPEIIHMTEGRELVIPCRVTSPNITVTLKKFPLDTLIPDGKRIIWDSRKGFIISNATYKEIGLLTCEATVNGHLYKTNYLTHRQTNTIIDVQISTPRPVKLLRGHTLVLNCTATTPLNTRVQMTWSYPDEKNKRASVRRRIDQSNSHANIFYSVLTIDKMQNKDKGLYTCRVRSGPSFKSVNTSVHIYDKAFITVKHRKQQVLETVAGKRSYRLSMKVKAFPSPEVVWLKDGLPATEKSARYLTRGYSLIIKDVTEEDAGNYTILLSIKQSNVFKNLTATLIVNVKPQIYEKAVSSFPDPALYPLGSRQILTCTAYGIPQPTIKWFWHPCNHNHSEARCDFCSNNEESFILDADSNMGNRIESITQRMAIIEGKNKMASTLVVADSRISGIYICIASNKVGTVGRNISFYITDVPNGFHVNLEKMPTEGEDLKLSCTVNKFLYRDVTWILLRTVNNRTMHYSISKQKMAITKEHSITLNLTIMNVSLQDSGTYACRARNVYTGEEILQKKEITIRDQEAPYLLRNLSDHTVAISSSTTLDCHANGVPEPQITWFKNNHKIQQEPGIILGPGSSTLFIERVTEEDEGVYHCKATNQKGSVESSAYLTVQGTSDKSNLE
Excerpt: ix) Binding of soluble VEGF receptor alkaline phosphatase fusion protein to immobilized VEGF. The flt-1 VEGF receptor was expressed as a fusion protein with AP as previously described (Roeckl et al, 1998) and tested for its binding capacity to immobilized VEGF as described in method (ii) above for the FGF receptor.

FGFR-1 = FGFR-1 (Mus musculus, UniProt P16092); experiment: Covalent cross-linking of 125I-bFGF to CHO cells transfected with FGFR-1; type: binding; set-up: expressed in transfected cells; host or cells: CHO cells deficient in heparan sulfate; settings: FIG. 2
FGFR-1, sequence (P16092 22-822): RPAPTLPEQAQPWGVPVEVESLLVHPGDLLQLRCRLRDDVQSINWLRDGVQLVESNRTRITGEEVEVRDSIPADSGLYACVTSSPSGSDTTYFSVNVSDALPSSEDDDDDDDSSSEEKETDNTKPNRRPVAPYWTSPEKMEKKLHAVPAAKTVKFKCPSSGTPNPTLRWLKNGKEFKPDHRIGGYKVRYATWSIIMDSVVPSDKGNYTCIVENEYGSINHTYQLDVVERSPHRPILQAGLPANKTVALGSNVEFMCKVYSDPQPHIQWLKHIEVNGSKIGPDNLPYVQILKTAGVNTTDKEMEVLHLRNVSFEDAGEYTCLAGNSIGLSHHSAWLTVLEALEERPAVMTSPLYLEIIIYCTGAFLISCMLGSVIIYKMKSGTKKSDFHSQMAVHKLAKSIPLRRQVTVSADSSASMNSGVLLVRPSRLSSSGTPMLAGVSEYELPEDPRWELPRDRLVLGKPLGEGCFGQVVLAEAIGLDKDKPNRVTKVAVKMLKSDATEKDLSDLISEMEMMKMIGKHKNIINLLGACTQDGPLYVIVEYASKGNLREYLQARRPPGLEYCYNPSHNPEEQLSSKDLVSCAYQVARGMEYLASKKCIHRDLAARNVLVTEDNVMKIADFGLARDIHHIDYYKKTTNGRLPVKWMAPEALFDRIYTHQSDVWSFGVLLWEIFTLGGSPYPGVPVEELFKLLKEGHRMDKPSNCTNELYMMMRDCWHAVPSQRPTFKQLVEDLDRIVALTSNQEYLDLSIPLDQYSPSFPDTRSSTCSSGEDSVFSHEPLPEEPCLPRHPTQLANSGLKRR
Description: Binding of ^125I-bFGF to confluent monolayers of PGFR-1 expressing CHO cells or ^125I-FGF9 to FGFR-3 expressing CHO cells, was performed as described in Methods, section (iv), in the presence or absence of P1 (Inhibitor). After 90 min, disuccinylimidyl suberate [DSS]
as §1
In order to unequivocally determine the specificity of the binding inhibition, chemical cross-linking of ^125I-bFGF and ^125I-FGF9 to CHO cells transfected with FGFR-1 and FGFR-3, respectively, was carried out as described in Methods, section (iv), in the absence or presence of increasing concentrations of P1.

IC50, FGF-9 binding in the cellular receptor system (FGFR-3): 0.1 µg/mL
Structure (SMILES): C[n+]1ccc(-c2c3nc(c(-c4cc[n+](C)cc4)c4ccc([nH]4)c(-c4c(F)c(F)c(F)c(F)c4F)c4nc(c(-c5cc[n+](C)cc5)c5ccc2[nH]5)C=C4)C=C3)cc1.[I-].[I-].[I-] [Compound P16, 5-Pentafluorophenyl-10,15,20-tris(N-methyl-4-pyridylium)-21H,23H-porphine triiodide]
Effect on PLC-γ activation (PLC-γ): clear reduction in the activation | Effect on ERK activation (ERK): clear reduction in the activation

Structure (SMILES): C[n+]1ccc(-c2c3nc(c(-c4cc[n+](C)cc4)c4ccc([nH]4)c(-c4cc[n+](C)cc4)c4nc(c(-c5cc[n+](C)cc5)c5ccc2[nH]5)C=C4)C=C3)cc1 [Compound P1, 5,10,15,20-Tetrakis(N-methyl-4-pyridylium)-21H,23H-porphine tetra-p-tosylate]
Effect on smooth muscle cell proliferation induced by bFGF (smooth muscle cells): strong inhibitory effect | Inhibition of tumor formation in nude mice, in words [1]: clear inhibition of tumor formation | IC50 [2]: ~40 nM | Inhibition of bFGF-receptor complex formation (cross-linking), in words (FGFR-1): inhibition of formation of a typical bFGF-receptor complex
